“And” between values parts separate entries of the source, which are not always exact repeats. Equal values may be shown once. “Also recorded” adds a separate entry of the source.
How the values were obtained:
[1] = tested on: zebrafish embryos; type: in vivo; conditions: 5 μM for 6 hours
[2] = tested on: zebrafish embryos; conditions: in vivo
[3] = tested on: zebrafish embryos; type: in vivo; conditions: n>30
[4] = tested on: mouse skin microvasculature; parameters: species or system C3H/HeJ mice; conditions: in vivo
[5] = tested on: zebrafish embryos; conditions: in vivo; remark: listed apart in the source
[6] = biological target: VEGFR2 (Mus musculus, UniProt P35918); conditions: cited from earlier work
[7] = biological target: T1, VEGFR2 (Homo sapiens, UniProt P35968); conditions: cited from earlier work
[8] = biological target: T1, VEGFR2; conditions: cited from earlier work; remark: listed apart in the source
[9] = biological target: VEGFR1 (Homo sapiens, UniProt P17948); conditions: cited from earlier work
[10] = tested on: zebrafish embryos; conditions: in vivo; remark: listed apart in the source

T1 sequence (P35968 20-1356): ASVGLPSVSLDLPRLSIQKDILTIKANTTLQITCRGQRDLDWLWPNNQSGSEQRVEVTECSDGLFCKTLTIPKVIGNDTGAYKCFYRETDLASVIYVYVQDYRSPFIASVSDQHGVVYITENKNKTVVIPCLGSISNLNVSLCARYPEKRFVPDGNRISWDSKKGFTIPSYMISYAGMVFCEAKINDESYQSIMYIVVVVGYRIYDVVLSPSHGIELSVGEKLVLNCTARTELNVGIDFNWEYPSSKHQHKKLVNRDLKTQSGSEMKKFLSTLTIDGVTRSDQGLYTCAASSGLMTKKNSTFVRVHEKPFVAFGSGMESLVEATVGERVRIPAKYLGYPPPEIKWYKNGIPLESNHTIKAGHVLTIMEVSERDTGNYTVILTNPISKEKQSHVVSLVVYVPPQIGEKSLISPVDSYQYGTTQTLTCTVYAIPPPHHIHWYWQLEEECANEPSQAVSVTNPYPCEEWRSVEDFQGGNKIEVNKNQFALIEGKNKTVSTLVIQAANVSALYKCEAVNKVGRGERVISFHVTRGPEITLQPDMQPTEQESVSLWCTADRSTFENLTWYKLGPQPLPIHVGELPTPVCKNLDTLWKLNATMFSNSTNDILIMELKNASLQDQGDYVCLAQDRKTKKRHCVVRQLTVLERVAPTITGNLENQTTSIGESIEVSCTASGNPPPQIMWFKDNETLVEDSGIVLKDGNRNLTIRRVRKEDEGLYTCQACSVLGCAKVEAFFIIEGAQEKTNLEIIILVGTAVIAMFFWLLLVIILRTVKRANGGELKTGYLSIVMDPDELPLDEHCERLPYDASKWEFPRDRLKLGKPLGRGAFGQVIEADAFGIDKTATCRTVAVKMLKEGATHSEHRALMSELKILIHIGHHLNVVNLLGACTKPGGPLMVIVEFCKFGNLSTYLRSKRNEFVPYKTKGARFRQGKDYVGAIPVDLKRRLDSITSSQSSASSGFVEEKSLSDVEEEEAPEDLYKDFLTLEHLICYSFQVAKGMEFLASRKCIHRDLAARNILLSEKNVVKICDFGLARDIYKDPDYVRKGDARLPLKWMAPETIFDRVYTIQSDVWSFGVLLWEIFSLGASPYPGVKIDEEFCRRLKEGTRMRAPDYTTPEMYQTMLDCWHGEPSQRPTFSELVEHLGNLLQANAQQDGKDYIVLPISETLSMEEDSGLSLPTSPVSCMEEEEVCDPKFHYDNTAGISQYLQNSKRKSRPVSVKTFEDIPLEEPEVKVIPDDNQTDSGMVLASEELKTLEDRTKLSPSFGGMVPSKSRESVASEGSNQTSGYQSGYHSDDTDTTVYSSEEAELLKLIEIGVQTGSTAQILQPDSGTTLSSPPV
VEGFR1, sequence (P17948 27-1338): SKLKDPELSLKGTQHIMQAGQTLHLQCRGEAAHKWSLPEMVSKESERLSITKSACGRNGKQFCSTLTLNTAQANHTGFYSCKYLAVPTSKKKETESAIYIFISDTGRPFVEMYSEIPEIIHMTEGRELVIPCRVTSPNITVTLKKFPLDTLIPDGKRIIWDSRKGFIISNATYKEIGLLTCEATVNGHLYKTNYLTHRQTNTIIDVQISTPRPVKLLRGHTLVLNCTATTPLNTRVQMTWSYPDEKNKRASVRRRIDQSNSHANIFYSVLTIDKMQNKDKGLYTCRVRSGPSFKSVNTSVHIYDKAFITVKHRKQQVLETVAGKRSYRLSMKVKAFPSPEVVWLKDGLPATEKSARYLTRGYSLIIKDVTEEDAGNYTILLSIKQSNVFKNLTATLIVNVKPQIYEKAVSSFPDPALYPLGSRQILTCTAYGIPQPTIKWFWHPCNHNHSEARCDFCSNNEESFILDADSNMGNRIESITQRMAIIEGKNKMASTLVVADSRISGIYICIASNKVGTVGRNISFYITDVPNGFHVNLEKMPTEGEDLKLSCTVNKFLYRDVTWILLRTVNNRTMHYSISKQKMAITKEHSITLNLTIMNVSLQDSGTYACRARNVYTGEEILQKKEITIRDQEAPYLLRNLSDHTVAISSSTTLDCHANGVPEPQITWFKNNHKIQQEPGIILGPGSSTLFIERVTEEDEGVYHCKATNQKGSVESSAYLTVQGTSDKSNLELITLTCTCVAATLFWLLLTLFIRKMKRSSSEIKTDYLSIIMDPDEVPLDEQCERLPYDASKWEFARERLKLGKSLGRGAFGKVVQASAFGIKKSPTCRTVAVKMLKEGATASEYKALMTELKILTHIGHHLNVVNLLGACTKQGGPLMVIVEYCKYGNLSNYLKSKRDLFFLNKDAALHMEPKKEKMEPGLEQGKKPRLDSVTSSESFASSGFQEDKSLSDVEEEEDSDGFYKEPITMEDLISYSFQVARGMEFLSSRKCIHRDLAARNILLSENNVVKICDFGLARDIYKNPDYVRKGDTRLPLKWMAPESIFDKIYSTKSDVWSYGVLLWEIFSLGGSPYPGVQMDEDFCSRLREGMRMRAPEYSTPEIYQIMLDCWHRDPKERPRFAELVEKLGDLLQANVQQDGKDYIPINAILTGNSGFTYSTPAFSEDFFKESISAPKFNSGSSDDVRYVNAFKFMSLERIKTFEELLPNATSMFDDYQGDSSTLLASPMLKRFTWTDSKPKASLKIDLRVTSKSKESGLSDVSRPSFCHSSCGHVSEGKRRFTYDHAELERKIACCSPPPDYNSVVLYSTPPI
VEGFR2 (Mus musculus, UniProt P35918), sequence (P35918 20-1345): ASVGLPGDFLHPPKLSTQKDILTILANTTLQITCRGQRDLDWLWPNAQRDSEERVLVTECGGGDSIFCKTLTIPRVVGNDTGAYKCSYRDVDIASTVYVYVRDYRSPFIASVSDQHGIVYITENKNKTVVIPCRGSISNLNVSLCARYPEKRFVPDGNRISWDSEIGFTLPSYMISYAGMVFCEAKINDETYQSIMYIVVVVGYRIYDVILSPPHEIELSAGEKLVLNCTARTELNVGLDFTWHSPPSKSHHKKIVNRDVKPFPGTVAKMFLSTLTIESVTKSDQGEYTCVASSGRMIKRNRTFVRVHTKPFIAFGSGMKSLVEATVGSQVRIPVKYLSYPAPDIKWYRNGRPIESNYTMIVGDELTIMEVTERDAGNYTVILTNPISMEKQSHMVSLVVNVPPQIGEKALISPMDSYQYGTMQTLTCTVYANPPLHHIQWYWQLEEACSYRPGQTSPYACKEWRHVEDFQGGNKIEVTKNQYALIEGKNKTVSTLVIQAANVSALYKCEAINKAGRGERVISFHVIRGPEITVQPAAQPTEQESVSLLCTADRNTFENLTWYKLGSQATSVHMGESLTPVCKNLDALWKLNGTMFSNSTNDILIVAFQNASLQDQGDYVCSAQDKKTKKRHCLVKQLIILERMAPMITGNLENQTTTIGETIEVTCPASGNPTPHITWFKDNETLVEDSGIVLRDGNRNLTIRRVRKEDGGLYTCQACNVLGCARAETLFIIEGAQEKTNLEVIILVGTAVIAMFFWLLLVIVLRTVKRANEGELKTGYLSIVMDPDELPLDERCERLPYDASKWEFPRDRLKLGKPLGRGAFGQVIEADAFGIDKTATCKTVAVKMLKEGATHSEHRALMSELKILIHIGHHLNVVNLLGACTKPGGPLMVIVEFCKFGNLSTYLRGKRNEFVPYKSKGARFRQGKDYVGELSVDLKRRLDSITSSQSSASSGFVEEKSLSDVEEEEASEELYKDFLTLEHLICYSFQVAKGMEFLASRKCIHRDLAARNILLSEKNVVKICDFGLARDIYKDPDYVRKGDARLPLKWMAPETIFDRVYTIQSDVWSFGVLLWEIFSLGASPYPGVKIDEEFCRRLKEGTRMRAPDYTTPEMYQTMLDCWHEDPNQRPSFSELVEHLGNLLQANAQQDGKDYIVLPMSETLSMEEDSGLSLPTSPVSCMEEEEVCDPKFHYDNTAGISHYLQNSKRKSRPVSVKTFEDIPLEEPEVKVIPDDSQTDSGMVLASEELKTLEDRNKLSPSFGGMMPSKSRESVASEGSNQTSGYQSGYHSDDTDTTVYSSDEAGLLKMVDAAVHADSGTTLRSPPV

Compound | Mild Toxin Phenotype [2] | Severe Toxin Phenotype [2] | Wildtype Appearance [2] | further results
C[C@@H]1C[C@@H]([C@H](O)CC2CC(=O)NC(=O)C2)C(=O)[C@@H](C)C1 [cycloheximide] |  |  |  | Phenocopy of endothelial cell fragmentation in the intersegmental vessels (in words) [1]: phenocopied
ZM449829 | 5 | 15 | 1 | 
O=C(NOCC1CC1)c1ccc(F)c(F)c1Nc1ccc(I)cc1Cl [CI-1040] |  |  |  | embryos in which LeTx effects were phenocopied [3]: 100%
AG-1296 | 3 | 15 | 2 | 
Cn1cc(C=C2C(=O)Nc3ccc(S(N)(=O)=O)cc32)c2ccccc21 [Syk Inhibitor, 3-(1-Methyl-1H-indol-3-yl-methylene)-2-oxo-2,3-dihydro-1H-indol-5-sulfonamide] | 7 | 14 | 1 | 
C[C@@H](N)[C@H]1CC[C@H](C(=O)Nc2ccncc2)CC1 [Y-27632] | 6 | 13 | 1 | 
CCN(CC)CCNC(=O)c1c(C)[nH]c(/C=C2\C(=O)Nc3ccc(Cl)cc32)c1C [SU11652] | 11 | 10 | 1 | LeTx induced vascular leakage, Evans Blue Dye (in words) [4]: attenuated LeTx induced vascular leakage significantly; % With Toxin Phen (Mild and Severe) [5]: 80% and 100%; Mild Phen [5]: 7 and 9 and 8; Protection against LeTx effects (in words) [5]: able to protect against LeTx effects; Severe Toxin Phen [5]: 9 and 11 and 12; Protection against LeTx effects / phenotypes (in words) [2]: demonstrated protection against LeTx effects; Blocking of VEGFR2 activity in vivo (in words) [6]: used successfully to block VEGFR2 activity
ZM323881 | 10 | 8 | 4 | LeTx induced vascular leakage, Evans Blue Dye (in words) [4]: attenuated LeTx induced vascular leakage significantly; VEGFR2 activation (in words) [7]: inhibit VEGFR2 activation; Attenuation of toxin effects (in words) [5]: able to attenuate the toxin effects; Protection against LeTx effects / phenotypes (in words) [2]: provided the best protection against the development of LeTx phenotypes; also recorded: demonstrated protection against LeTx effects; IC50 [8]: < 0.002 µM; IC50 [9]: > 50 µM; Mild Toxin Phen [10]: 12 and 8 and 9 and 13; Proportion of embryos displaying LeTx phenotypes (in words) [10]: reduction in the proportion of embryos displaying LeTx phenotypes is seen in 3 concentrations of the inhibitor; Severe forms of the LeTx phenotype (in words) [10]: dramatic reduction in the severe forms of the LeTx phenotype that occurred in all concentrations used
